According to patent US9687529B2, “Method of controlling coagulation” (Duke University, priority 2011, dated 2017):
Strand notation (5' to 3'): a small letter for the sugar, then the base; units joined by * are phosphorothioate-linked, units joined directly phosphodiester-linked; [ ] holds rarer units or linkages, { } end groups; capitals alone tell only the bases. r = 2'-OH (RNA); f = 2'-fluoro

Experiments:
[1] = system: clot formation in whole blood; assay: Thromboelastography (TEG), whole blood stimulated with tissue factor; assay type: cell-based, human
Experimental: (§1) Blood was drawn from healthy, consented volunteers under a Duke University Institutional Review Board approved protocol and anticoagulated with 3.2% sodium citrate. Whole blood (320 μL) was mixed with anticoagulant (heparin or aptamers) (10 μL) and kaolin (Haemonetics, Niles, Ill.) (10 μL) or CAT PRP reagent (Diagnostica Stago, 0.33 ρM TF final) (10 μL) was added to stimulate clotting. CaCl2 (20 μL) was immediately added to overcome the citrate, the mixture was added to a plain disposable plastic TEG cup (Haemonetics), and the assay was run according to the manufacturer's instructions. Clot formation at 37° C. was measured with a Thromboelastograph Analyzer (Haemonetics, Niles, Ill.) until a stable clot was formed (i.e., a maximum amplitude was reached) or for three hours with the aptamer combinations. The time lag time, α-angle, and maximum amplitude were automatically calculated by the TEG® Analytical Software version 4.2.3 (Haemonetics).
Because kaolin stimulates blood via the intrinsic pathway, it is unlikely that 7S-1 (FVIIa aptamer) would impair clot formation with this type of stimulation; thus, this aptamer was tested in a modified TEG with TF stimulation. CAT platelet rich plasma (PRP) reagent (TF) was diluted to a final concentration of 0.33 ρM TF to stimulate clotting.

[2] = system: clot formation in whole blood; assay: Thromboelastography (TEG), whole blood stimulated with kaolin; assay type: cell-based, human
Experimental: as §1
Although the aPTT, PT, and CAT assays provide basic information about dose-dependent anticoagulation, these assays are performed in an environment that lacks platelets. Platelets play a crucial role in clot formation by providing a membrane surface upon which the clotting factors assemble, by aggregating and becoming physically incorporated into the blood clot, and by releasing internal stores of agonists that amplify coagulation (Monroe et al, Arterioscler Thromb Vasc Biol 22:138 1-9 (2002)). Therefore, a study was made of aptamer anticoagulation with thromboelastography (TEG), which provides real-time information about the kinetics of clot formation in whole blood (Reikvam et al, Transfus Apher Sci; 40:119-23 (2009). The TEG assay uses mechanical motion to quantify the physical properties of clot formation, including the lag time (the time until clot formation), the α-angle (the rate of clot formation), and the maximum amplitude (the mechanical strength of the clot formed).

[3] = system: thrombin generation in normal human platelet poor plasma; assay: Calibrated automated thrombography (CAT); assay type: biochemical
Experimental: Normal human platelet poor plasma (80 μL) was mixed with aptamer(s) (10 μL) in an Immunolon 2HB U Bottom Mictrotiter 96-well plate (Thermo Labsystems, Franklin, Mass.) and incubated at 37° C. for 5 min. PPP reagent (Diagnostica Stago, Parsippany, N.J.) (either 1 ρM or 5 ρM TF, 20 μL, Diagnostica Stago) was added, and the mixture was incubated at 37° C. for another 5 min. FluCa (Diagnostica Stago) (10 μL) was added to initiate the assay and thrombin generation was measured for 60 minutes at 37° C. with a Fluoroskan Ascent fluorometer (ThermoLabsystem, Helsinki, Finland) according to the manufacturer's instructions. The amount of thrombin generated was quantified by comparison to an assay with thrombin calibrator reagent (Diagnostica Stago) that has a known activity toward the fluorogenic substrate. The lag time, peak amount of thrombin generated, and endogenous thrombin potential (ETP) were automatically calculated by the Thrombinoscope software (Thrombinoscope BV, the Netherlands).
Thrombin is the final protease formed in the coagulation cascade, and the rate of thrombin generation and the total amount of thrombin generated is associated with blood clot formation and stability (Wolberg, Blood Rev 21:131-42 (2007)). To gain more information about the impact of aptamer anticoagulation on the kinetics of thrombin generation, the individual aptamers were analyzed with calibrated automated thrombography (CAT). The CAT assay measures real-time thrombin generation in plasma by monitoring cleavage of a thrombin-specific fluorogenic substrate in response to TF stimulation (Heruker et al, Pathophysiol Haemost Thromb 33: 4-15 (2003)). The parameters of thrombin generation analyzed include: the lag time (time until thrombin generation begins), the peak (the maximal amount of thrombin generated at a given time) and the endogenous thrombin potential (ETP, the total amount of thrombin generated). Similar to the aPTT and PT clotting assays, all of the individual aptamers dose-dependently impacted the various parameters of thrombin generation (FIG. 21 and Table 1). […] 9.3T minorly impacted all parameters of thrombin generation with the high TF reagent; however, because high concentrations of TF may bypass FIX activity by directly generating FXa, the manufacturer recommends low concentrations of TF for analyzing FIX deficient (i.e, Hemophilia B) plasma in the CAT.

[4] = system: clot formation in normal human platelet poor plasma; assay: Activated partial thromboplastin time (aPTT) plasma clotting assay; assay type: biochemical; details: aPTT
Experimental: The activated partial thromboplastin time (aPTT) and prothrombin time (PT) assays were performed on a model ST4 mechanical coagulometer (Diagnostica Stago, Parsippany, N.J.) as previously described (Bompiani et al, J Thromb Haemost 10:870-80 (2012)). For the aPTT, 50 μL of normal human platelet poor plasma (PPP) was incubated with 50 μL TriniClot aPTT S (Trinity BioTech, Bray, Co Wicklow, Ireland) at 37° C. for 5 min. Aptamer(s) (5 μL) was added, and the mixture was incubated at 37° C. for another 5 min, and CaCl2 (50 μL) was added to initiate the assay. For the PT, 50 μL of normal human PPP was incubated with 5 μL of aptamer(s) at 37° C. for 5 min. TriniClot PT Excel reagent (Trinity BioTech, Bray, Co Wicklow, Ireland) (100 μL) was added to initiate the reaction. Assays with a combination of two aptamers contain an equimolar concentration of each individual aptamer, and the data shown are the total RNA concentration.
To compare the anticoagulant effect of these four aptamers, dose-response titrations were performed in several clinical plasma-based clotting assays. The activated partial thromboplastin time (aPTT) and prothrombin time (PT) are plasma clotting assays that are clinically used to probe for abnormalities in the intrinsic and extrinsic coagulation pathways, respectively (Van Cott et al, editors. Jacobs & DeMott laboratory test handbook. 5th ed. Hudson Ohio: Lexi-Comp. p. 327-58 (2001)). These relatively simple assays measure the time until clot formation in platelet poor plasma (PPP) in response to either robust tissue factor (TF), or contact stimulation via negatively charged surfaces (i.e., silica, kaolin, celite). […] At high concentrations, the prothrombin aptamer (R9D-14T) was the most robust anticoagulant and inhibited greater than 96% of prothrombin activity in the aPTT and PT. At 4 μM, R9D-14T increased the aPTT clotting time approximately 18-fold and the PT clotting time greater than 80-fold (exceeded the assay limit of 999 sec). […] At the same dose, the FIXa aptamer (9.3T) inhibited greater than 99% of FIX activity and increased the aPTT clotting time approximately 5.5-fold, while the FVIIa aptamer (7S-1) increased the PT clotting time 3-fold and inhibited greater than 99% of FVII activity (FIGS. 20A and 20B).

Molecule: 9.3Tmut: 9.3T mutant control, SEQ ID NO: 4 (AUGGGGACUGUGCCGCGUAAUGCUGCCUCCCCAU; 2'-fluoro at CU, RNA at AG, backbone not given here) [Aptamer 9.3Tmut, reference compound]
- Angle ([1]; RNA 1.00 μM): 69.0 ± 4.8 deg
- Lag-time ([1]; RNA 1.00 μM): 2.7 ± 0.4 min
- Max. Amplitude ([1]; RNA 1.00 μM): 67.2 ± 1.6 mm
- Angle ([2]; RNA 2.0 μM): 58.6 ± 7.8 deg
- Lag-time ([2]; RNA 2.0 μM): 7.3 ± 2.1 min
- Max. Amplitude ([2]; RNA 2.0 μM): 60.1 ± 5.8 mm
- ETP ([3]; RNA 120 nM, TF 1 ρM): 1446.83 ± 59.97 nM·min
- Lag-time ([3]; RNA 120 nM, TF 1 ρM): 3.11 ± 0.20 min
- Peak ([3]; RNA 120 nM, TF 1 ρM): 219.57 ± 33.93 nM
- TTP ([3]; RNA 120 nM, TF 1 ρM): 7.17 ± 0.59 min
- ETP ([3]; RNA 120 nM, TF 5 ρM): 1820.83 ± 80.77 nM·min
- Lag-time ([3]; RNA 120 nM, TF 5 ρM): 1.89 ± 0.06 min
- Peak ([3]; RNA 120 nM, TF 5 ρM): 355.41 ± 17.21 nM
- TTP ([3]; RNA 120 nM, TF 5 ρM): 4.34 ± 0.10 min

Molecule: 11F7Tmut: 11F7T mutant control, SEQ ID NO: 6 (rGrArGrArGfCfCfCfCrArGfCrGrArGrAfUrArAfUrAfCfUfUrGfUrAfCfCfCrGfCfUfCfUfU) [Aptamer 11F7Tmut, reference compound]
- Angle ([1]; RNA 2.00 μM): 68.5 ± 0.5 deg
- Lag-time ([1]; RNA 2.00 μM): 3.9 ± 0.2 min
- Max. Amplitude ([1]; RNA 2.00 μM): 67.9 ± 0.7 mm
- Angle ([2]; RNA 2.0 μM): 69.7 ± 1.2 deg
- Lag-time ([2]; RNA 2.0 μM): 5.1 ± 0.6 min
- Max. Amplitude ([2]; RNA 2.0 μM): 65.8 ± 0.8 mm
- ETP ([3]; RNA 1,000 nM, TF 5 ρM): 1902.67 ± 87.44 nM·min
- Lag-time ([3]; RNA 1,000 nM, TF 5 ρM): 1.39 ± 0.06 min
- Peak ([3]; RNA 1,000 nM, TF 5 ρM): 391.12 ± 13.27 nM
- TTP ([3]; RNA 1,000 nM, TF 5 ρM): 3.73 ± 0.06 min

Molecule: R9D-14Tmut: R9D-14T mutant control, SEQ ID NO: 7 (GGCGGTCGATCACACAGTTCAAACGTAATAAGCCGGCGTACGAGGCAGACGACTCGCC; 2'-fluoro at CT, RNA at AG, all phosphodiester, T or U not given here) [Aptamer R9D-14Tmut, reference compound]
- Angle ([1]; RNA 5.00 μM): 72.3 ± 0.7 deg
- Lag-time ([1]; RNA 5.00 μM): 2.7 ± 0.2 min
- Max. Amplitude ([1]; RNA 5.00 μM): 66.1 ± 1.4 mm
- Angle ([2]; RNA 5.0 μM): 56.0 ± 4.8 deg
- Lag-time ([2]; RNA 5.0 μM): 6.5 ± 0.4 min
- Max. Amplitude ([2]; RNA 5.0 μM): 61.9 ± 4.0 mm
- ETP ([3]; RNA 5,000 nM, TF 5 ρM): 1564.33 ± 121.22 nM·min
- Lag-time ([3]; RNA 5,000 nM, TF 5 ρM): 1.44 ± 0.06 min
- Peak ([3]; RNA 5,000 nM, TF 5 ρM): 312.12 ± 8.89 nM
- TTP ([3]; RNA 5,000 nM, TF 5 ρM): 3.66 ± 0.17 min

B1: FIX/FX dogbone 2: bifunctional FIX/FX dogbone aptamer, SEQ ID NO: 16 (nucleic acid)
chain: GGAUGGGGACUAUACCGCGUAAUGCUGCCUCCCCAUCCAAAACGUAGAGAGCCCCAGCGAGAUAAUACUUGGCCCCGCUCUUUACGU
modifications: listed as RNA, chemistry not given here
- anti-coagulation of dogbones compared to the free combination of aptamers (in words) [4]: equal anti-coagulation compared to the free combination

B2: FX/FII dogbone 1: bifunctional FX/FII dogbone aptamer, SEQ ID NO: 19 (nucleic acid)
chain: GGGGCGGUCGAUCACACAGUUCAAACGUAAUAAGCCAAUGUACGAGGCAGACGACUCGCCCCAAAACGUAGAGAGCCCCAGCGAGAUAAUACUUGGCCCCGCUCUUUACGU
modifications: listed as RNA, chemistry not given here
- anti-coagulation of dogbones compared to the free combination of aptamers (in words) [4]: better anti-coagulation when compared to the free aptamers

B3: 3G dogbone 4: truncate of FX/FII dogbone 4, SEQ ID NO: 23 (nucleic acid)
chain: GGGUCGAUCACACAGUUCAAACGUAAUAAGCCAAUGUACGAGGCAGACGACCCAAAGCCCCAGCGAGAUAAUACUUGGCCCCGCU
modifications: listed as RNA, chemistry not given here
- anti-coagulation activity of dogbone 4 truncates (in words) [4]: best anti-coagulation activity of the truncates

B4: FIX/FX dogbone 1: bifunctional FIX/FX dogbone aptamer, SEQ ID NO: 15 (nucleic acid)
chain: GGUGGAUGGGGACUAUACCGCGUAAUGCUGCCUCCCCAUCCACCAAAUAGCACGUAGAGAGCCCCAGCGAGAUAAUACUUGGCCCCGCUCUUUACGUGCUA
modifications: listed as RNA, chemistry not given here
- anti-coagulation of dogbones compared to the free combination of aptamers (in words) [4]: equal anti-coagulation compared to the free combination

B5: 4G dogbone 4: truncate of FX/FII dogbone 4, SEQ ID NO: 24 (nucleic acid)
chain: GGGGAUCACACAGUUCAAACGUAAUAAGCCAAUGUACGAGGCAGACCCCAAAGCCCCAGCGAGAUAAUACUUGGCCCCGCU
modifications: listed as RNA, chemistry not given here
- anti-coagulation activity of dogbone 4 truncates (in words) [4]: best anti-coagulation activity of the truncates

B6: 7S-1mut: 7S-1 mutant control, SEQ ID NO: 8 (nucleic acid)
chain: rGrGrGrArGrGrAfCrGrAfUrGfCrGrGrAfCfUfCfCfUfCfCrArArGfCrGrAfCfCrArAfCrAfUfCrGrGfUfCfUfUrAfUfUfUfCrArGrAfUfCrArAfCrArGrAfCrGrAfCfUfCrGfCfUrGrArGrGrAfUfCfCrGrArGrA
- Angle ([1]; RNA 0.50 μM): 67.8 ± 3.8 deg
- Lag-time ([1]; RNA 0.50 μM): 3.1 ± 0.1 min
- Max. Amplitude ([1]; RNA 0.50 μM): 67.2 ± 0.7 mm
- ETP ([3]; RNA 30 nM, TF 5 ρM): 1890.67 ± 23.55 nM·min
- Lag-time ([3]; RNA 30 nM, TF 5 ρM): 1.73 ± 0.06 min
- Peak ([3]; RNA 30 nM, TF 5 ρM): 357.63 ± 7.76 nM
- TTP ([3]; RNA 30 nM, TF 5 ρM): 4.45 ± 0.06 min

B7: FX/FII dogbone 3: bifunctional FX/FII dogbone aptamer, SEQ ID NO: 21 (nucleic acid)
chain: GGGUCGAUCACACAGUUCAAACGUAAUAAGCCAAUGUACGAGGCAGACGACUCCAAAAGCCCCAGCGAGAUAAUACUUGGCCCCGCU
modifications: listed as RNA, chemistry not given here
- anti-coagulation of dogbones compared to the free combination of aptamers (in words) [4]: better anti-coagulation when compared to the free aptamers
